These results are taken from paper PMC9180926, “Discovery of Novel 3-Hydroxyquinazoline-2,4(1H,3H)-Dione Derivatives: A Series of Metal Ion Chelators with Potent Anti-HCV Activities” (International Journal of Molecular Sciences, 2022).

For data set [1], the system named is HCV 1b replicon cells (Huh-7.5.1). As to the kind of experiment: Anti-HCV assay, HCV 1b replicon cells with luciferase reporter. The following applies: Hepatitis C virus, Huh-7.5.1, 72 h, inhibitory rate at 5 μM. The class given is cell-based, hepatitis C virus (HCV) subtype 1b. (In antiviral work, replicon cells carry a viral genome segment that copies itself.)

Data set [2] shares this test system. The data set is described as above. The format is cell-based, hepatitis C virus (HCV) subtype 1b. The note with it: HCV 1b replicon cells; for inhibition at 10 µM / inhibition at 25 µM: Huh-7.5.1, 72 h, 72 h; for inhibition at 10 µM: inhibitory rate at 10 μM, read-out: HCV Inhibition 10 μM; for EC50: mean ± SD; for inhibition at 25 µM: inhibitory rate at 25 μM, read-out: HCV Inhibition 25 μM. As for the experimental part:
(§1) The HCV replicons were validated as convenient and effective models for testing the anti-HCV activity. Since HCV subtype 1b is one of the major subtypes worldwide, especially in China, the replicon model from the Huh-7.5.1 cell line integrating HCV 1b genome encoding the nonstructural proteins was chosen to evaluate the anti-HCV activities of 3-hydroxyquinazoline-2,4(1H,3H)-diones. The inhibitory rates of the compounds on HCV replicon cells were determined at concentrations of 25 μM and 10 μM, respectively. The broad-spectrum antiviral drug ribavirin (RBV) and the NS5B nucleoside inhibitor 2′-C-methyladenosine (2CMA) were selected as positive controls. The cytotoxicity of these compounds on replicon cells was determined using the cell counting kit-8 (CCK-8) assay.
HCV 1b replicon cells (Huh-7.5.1) containing luciferase reporter gene were kindly provided by Prof. Zhenghong Yuan (Key Laboratory of Medical Molecular Virology, Fudan University, Shanghai, China). The replicon cells were plated at 1.5 × 10^4 cells per well in a 48-well plate (Corning Inc., New York, NY, USA) at 5% CO2/37 °C. The culture medium was Dulbecco’s Modified Eagle Medium (DMEM, pH 7.3, Shanghai XP Biomed Ltd., Shanghai, China) containing 10% fetal bovine serum (Shanghai XP Biomed Ltd., Shanghai, China), 10^5 U/L penicillin, 0.1 g/L streptomycin, and 0.5 μg/mL blasticidin. After 12 h, the culture medium in each well was replaced with 300 μL of pre-prepared fresh culture medium containing test compound (dissolved in DMSO with specific concentration) or blank DMSO. The final concentration of DMSO in the culture medium in the plate was 0.1%. Each group was tested at least twice in parallel. Ribavirin and 2CMA were used as the positive controls. After incubating the drug-added plate at 5% CO2/37 °C for 72 h, the medium was removed, and each well was washed with 300 μL of phosphate buffer solution (PBS, Shanghai XP Biomed Ltd., Shanghai, China). The cells in each well were then lysed with 50 μL of 1× lysis buffer (E2820, Promega, Madison, WI, USA). Subsequently, 50 μL of 1× luciferase assay substrate (E2820, Promega, Madison, WI, USA) was mixed with 20 μL of the harvested cell lysates.
The inhibitory rates under at least six different concentration gradients were imported into GraphPad Prism 7.0 software to calculate the anti-HCV EC50 values of the compounds using the nonlinear fitting method.

Data set [3] is described as follows: Cytotoxicity assay (CCK-8) on replicon cells. The format is cell-based. The note with it: human, HCV 1b replicon cells (Huh-7.5.1); 50% cytotoxic concentration; CCK-8, HCV 1b replicon cells, 72 h. As for the experimental part: as §1
(§2) The HCV 1b replicon cells were incubated and treated with test compounds or blank DMSO in a 48-well plate using the same materials and methods as described in the experimental procedure of anti-HCV assay. The final concentration of DMSO in each well was 0.1%. After 72 h of drug treatment, the culture medium in the well plate was removed, and cells in each well were washed with 300 μL of PBS. A total of 300 μL of pre-prepared fresh culture medium containing 30 μL CCK-8 reagent (Donjindo, Kumamoto, Japan) was added to each well, and the plate was incubated at 5% CO2/37 °C for 2 h. The OD (optical density) value of each well at 450 nm was measured using a multi-function microplate reader (SpectraMax M5, Molecular Devices, San Jose, CA, USA). The death ratio of each well was calculated using the following equation, in which ODcompound or ODblank represents the measured OD value of the compound group or the blank control (DMSO), respectively:death ratio = (1−ODcompound/ODblank) × 100%(2)
(§3) The cell death data under at least six different concentration gradients were imported into GraphPad Prism 7.0.0 software (GraphPad Software Inc., San Diego, CA, USA), and the CC50 (50% cytotoxic concentration) values were calculated using the nonlinear fitting method.

Data set [4] concerns the target T1, C-terminal His-tagged NS5BΔ21 from HCV 1b subtype (Hepatitis C virus genotype 1b, UniProt Q913V3).
T1 construct: C-terminal His-tagged NS5BΔ21 from HCV 1b subtype; His tag (C); made in house
In words: Thermal shift assay with NS5B protein. The format is binding. The note with it: for ΔTm at 50 µM: compound 50 μM; for ΔTm at 100 µM: compound 100 μM. The text has this: The stability of a protein system is enhanced after binding to its specific ligand, leading to an increase in the melting temperature (Tm). Taking advantage of this feature, the thermal shift assay was extensively used to assess the binding of small molecules to the protein targets. The metal ion chelators were thought to exert an anti-HCV effect by chelating with Mg^2+ in the catalytic center of NS5B [34, 36, 38]. […] C-terminal His-tagged NS5BΔ21 from HCV 1b subtype was used as the protein in the experiment. Compared with the blank control (DMSO), the fluorescence–temperature curves of the NS5B system in the presence of 21e (Figure 3A) and 21k (Figure 3B) at 50 μM, 100 μM, and 200 μM all shifted to the right of the axis. The Tm values of 21e and 21k increased in a concentration-dependent manner, presenting higher values than that of the blank control (Tm = 63.5 °C) at all tested concentrations.
C-terminal His-tagged NS5BΔ21 from HCV 1b subtype was expressed from pET28a HCR6 plasmid in our lab and dissolved in a Tris-HCl buffer (20 mm, pH 7.2) containing 150 mm NaCl. Then, 1 μL of corresponding concentration (1 mm, 2 mm, or 4 mm) of the test compound in DMSO or 1 μL DMSO alone was added to each well of a 96-well PCR plate (Shanghai Sangon Biotech Co., Ltd., Shanghai, China). Subsequently, 19 μL of pre-prepared PBS solution containing 10 mm MgCl2, 10× SYPRO® orange protein gel stain (Sigma-Aldrich, St. Louis, MO, USA), and 5 μM NS5B protein was added to each well and mixed. The final concentration of DMSO in each well was 5%. The PCR plate was covered with a high-permeable film, incubated at room temperature for 10 min, and then placed on the Applied Biosystems^TM 7500 Real-Time PCR System (Thermo Fisher Scientific, Waltham, MA, USA). The temperature was increased to 90 °C gradually, and the change curve of fluorescence intensity versus system temperature was recorded.

Data set [5] has as its system HCV 1b replicon cells (Huh-7.5.1). As to the kind of experiment: Cytotoxicity assay (CCK-8) on replicon cells. The class given is cell-based. The note with it: replicon cells, tested concentrations. As for the experimental part: as §1, §2, §3
The subject of the next data set is HCV. The following applies: cited from earlier work.
The subject of a further data set is NS5B. The note with it: cited from earlier work.
Details of data set [6]: method as in PMID 22100256. The following applies: Figure 1; read-out: NS5B CC50; cited from earlier work.
Where [7] appears, read: Tm of compound group minus Tm of blank control, mean ± SD, three experiments.
Where [8] appears, read: Hepatitis C virus, Huh-7.5.1, 50% effective concentration.
Where [9] appears, read: 5,6-dihydroxypyrimidine-4-carboxylic acids.

Entries after “also recorded” stand apart in the source; their conditions may differ. Like-named read-outs stand apart in the source and are kept apart here. Some results are limits rather than exact numbers.

T1 sequence (Q913V3 2420-2989, stated change not applied): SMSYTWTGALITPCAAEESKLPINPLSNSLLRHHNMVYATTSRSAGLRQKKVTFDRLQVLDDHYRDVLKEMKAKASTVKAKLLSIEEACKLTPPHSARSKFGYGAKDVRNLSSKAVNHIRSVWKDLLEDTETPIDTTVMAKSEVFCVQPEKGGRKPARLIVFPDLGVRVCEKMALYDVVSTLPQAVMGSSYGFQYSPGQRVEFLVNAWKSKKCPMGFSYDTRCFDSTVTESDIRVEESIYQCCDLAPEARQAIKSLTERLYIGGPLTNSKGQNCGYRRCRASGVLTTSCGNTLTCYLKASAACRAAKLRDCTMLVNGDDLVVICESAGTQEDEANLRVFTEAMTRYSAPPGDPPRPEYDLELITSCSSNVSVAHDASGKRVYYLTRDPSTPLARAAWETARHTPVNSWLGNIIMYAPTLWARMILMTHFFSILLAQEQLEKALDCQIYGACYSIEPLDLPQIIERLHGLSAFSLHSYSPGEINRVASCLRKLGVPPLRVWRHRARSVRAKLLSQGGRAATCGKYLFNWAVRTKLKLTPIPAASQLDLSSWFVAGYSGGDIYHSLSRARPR

Consider `O=c1[nH]c2cc(-c3cccc([N+](=O)[O-])c3)ccc2c(=O)n1O` [21k, 3-Hydroxy-7-(3-nitrophenyl)quinazoline-2,4(1H,3H)-dione], for which the inhibition at 5 µM in data set [1] worked out at 55%. In addition, the inhibition at 10 µM in data set [2] (Hepatitis C virus) was determined as 70.6%. This compound also returned a CC50 at 72 h in data set [3] of 40.9 ± 3.5 µM. Moreover, in data set [4] (setting [7]), the ΔTm at 50 µM stood at 0.87 ± 0.12 °C and the ΔTm at 100 µM came to 1.6 ± 0.08 °C. The ΔTm at 200 µM in data set [4] (compound 200 μM, Tm of compound group minus Tm of blank control, mean ± SD, three experiments, read-out: ΔTm 200 μM) is 2.1 ± 0.44 °C. Moreover, the “Tm of NS5B complexed with compound” value in data set [4] (in Figure 3, blank control Tm = 63.5 °C) is 65.6 °C.

Regarding `O=c1c2ccccc2n(CCc2ccc(F)cc2)c(=O)n1O` [10d, 1-(4-Fluorophenethyl)-3-hydroxyquinazoline-2,4(1H,3H)-dione], in data set [2] (setting [8]), the response was half-maximal at 13.3 ± 0.9 µM (EC50). Besides, in data set [2] (Hepatitis C virus), the inhibition at 10 µM is 36.4% and the inhibition at 25 µM was determined as 75.7%. The same compound returned a CC50 at 72 h in data set [3] of 22.2 ± 4.6 µM. In addition, the “cytotoxicity (in words)” value in data set [5] is listed as “some cytotoxicity”.

Consider `O=C1Cc2cc(-c3ccco3)ccc2C(=O)N1O` [compound 6], for which, in the data set on HCV (cellular level, reported), the concentration for a half-maximal effect (EC50) was 1.9 µM. Besides, the IC50 in the data set with NS5B (2-hydroxyisoquinoline-1,3-diones) was 1.3 µM. Further, the CC50 in data set [6] is 13 µM.

`O=c1[nH]c2cc(-c3cc4ccccc4o3)ccc2c(=O)n1O` [21t, 7-(Benzofuran-2-yl)-3-hydroxyquinazoline-2,4(1H,3H)-dione]: in data set [2] (Hepatitis C virus), the inhibition at 10 µM is 68.3% and the inhibition at 25 µM was 78.5%. This compound yielded a CC50 at 72 h in data set [3] above 50 µM. The “cytotoxicity (in words)” value in data set [5] was “no obvious cytotoxic effect; also recorded: No cytotoxic effect was observed”.

On to `O=C(NCc1ccccc1Cl)Nc1cscc1-c1nc(O)c(O)c(C(=O)O)n1` [compound 5], for which the EC50 with HCV (cellular level) is 9.3 µM. The IC50 in the data set on NS5B (setting [9]) was 0.15 µM.

For `C[C@@]1(O)[C@H](O)[C@@H](CO)O[C@H]1n1cnc2c(N)ncnc21` [2CMA, 2′-C-methyladenosine, reference compound], the EC50 in the data set on HCV (reported) was 0.3 µM; in data set [2] (setting [8]) it was 0.36 ± 0.03 µM. The compound also returned a CC50 at 72 h in data set [3] above 10 µM.

In the case of `O=c1c2ccccc2n(CCc2ccccc2Cl)c(=O)n1O` [10c, 1-(2-Chlorophenethyl)-3-hydroxyquinazoline-2,4(1H,3H)-dione], the EC50 in data set [2] (setting [8]) was above 12.2 µM. Further, in data set [2] (Hepatitis C virus), the inhibition at 10 µM worked out at 33.4% and the inhibition at 25 µM was found to be 67.8%. The same compound displayed a CC50 at 72 h in data set [3] of 12.2 µM. In data set [5], the “cytotoxicity (in words)” value was “some cytotoxicity”.

Regarding `Nc1ncnc2c1ncn2[C@@H]1O[C@H](COP(=O)(O)OP(=O)(O)O)[C@@H](O)[C@H]1O` [ADP, adenosine diphosphate, reference compound], in data set [4] (setting [7]), the ΔTm at 50 µM is 0.44 ± 0.11 °C and the ΔTm at 100 µM was determined as 0.62 ± 0.05 °C. Moreover, the “ΔTm 200 μM” value in data set [4] (compound 200 μM, Tm of compound group minus Tm of blank control, mean ± SD, three experiments) stood at 0.88 ± 0.06 °C. Also, the ΔTm at 200 µM in data set [4] (read-out: ΔTm 200 μM, compound 200 μM, Tm of compound group minus Tm of blank control, mean ± SD, three experiments) turned out to be 0.87 °C.

Turning to `NC(=O)c1ncn([C@@H]2O[C@H](CO)[C@@H](O)[C@H]2O)n1` [RBV, ribavirin, reference compound], the EC50 in the data set with HCV (cellular level, reported) was 14 µM; in data set [2] (setting [8]), 20 ± 4.1 µM. Moreover, in data set [2] (Hepatitis C virus), the inhibition at 25 µM stood at 53.2%. Moreover, the CC50 at 72 h in data set [3] was found to be 45.5 ± 2.6 µM.

Consider `O=C(O)C(=O)CC(=O)c1ccccc1` [compound 1], for which the IC50 in the data set on NS5B (α,γ-diketo acids) was 5.7 µM.

In the case of `O=C(O)c1occc(=O)c1O` [compound 3], in the data set with HCV (cellular level), the concentration giving a half-maximal response (EC50) is above 50 µM. The IC50 in the data set with NS5B (meconic acids) was 2.25 µM.

On to `N#Cc1c(Cl)cc(Cl)cc1COc1cccc(C(=O)CC(=O)C(=O)O)c1` [compound 2], for which, in the data set with NS5B (α,γ-diketo acids), the IC50 is 0.045 µM.

The compound `O=c1[nH]c2cc(-c3ccc(C(F)(F)F)cc3)ccc2c(=O)n1O` [21h, 3-Hydroxy-7-(4-(trifluoromethyl)phenyl)quinazoline-2,4(1H,3H)-dione] registered an inhibition at 5 µM in data set [1] of 5%. Besides, the concentration giving a half-maximal response (EC50) was 9.6 ± 2.7 µM in data set [2] (50% effective concentration) and below 10 µM in data set [2] (setting [8]). The inhibition at 10 µM in data set [2] (Hepatitis C virus) was found to be 53.8%. The same compound registered a CC50 at 72 h in data set [3] above 50 µM. The “cytotoxicity (in words)” value in data set [5] is “no cytotoxicity was observed”.

Regarding `O=C(O)c1nc(-c2cccs2)nc(O)c1O` [compound 4], the EC50 in the data set with HCV (cellular level) was above 100 µM. In the data set on NS5B (setting [9]), the IC50 was 2.6 µM.

As usually defined, the inhibition is the change of the read-out against control, counted positive when it falls. As usually defined, the ΔTm is the change in melting temperature against a reference sample. A word on the EC50: it is the concentration needed to bring the measured effect to its halfway point. The term IC50 denotes the point on the concentration scale where inhibition reaches its midpoint.
